According to patent US12564582B2 (Prilenia Neurotherapeutics Ltd., priority 2016, dated 2026):
Like-named read-outs stand apart in the source and are kept apart here.

Test system: patients with Huntington's disease
Description: In the UHDRS, maximal dystonia was scored from 0 (absent) to 4 (marked/prolonged) on each of the following items: trunk, right upper extremity, left upper extremity, right lower extremity, and left lower extremity. Maximal dystonia is the sum of all scores.

With `CCCN1CCC(c2cccc(S(C)(=O)=O)c2)CC1` [pridopidine, 4-[3-(methylsulfonyl)phenyl]-1-propyl-piperidine] the “Δ to placebo, change from baseline in UHDRS TMS Dystonia” value (shortened to “Δ to placebo, change from baseline”) (45 mg bid, Week 26, ALL) was −0.06, the “Δ to placebo, change from baseline” value (45 mg bid, Week 26, Stage 1 BL TFC 11-13) was −0.99 and the “Δ to placebo, change from baseline” value (45 mg bid, Week 52, Stage 1 BL TFC 11-13) was −1.65. The “Δ to placebo, change from baseline” value (45 mg bid, Week 52, all pridopidine treated patients) was −0.39, the “Δ to placebo, change from baseline” value (45 mg bid, week 26, BL TFC ≥9 and CAG Repeats <44 and BL TMS 1st 3 Qs) was −1.53 and the “Δ to placebo, change from baseline” value (45 mg bid, week 26, BL TFC≥9 AND CAG Repeats <44) was −1.54. The “Δ to placebo, change from baseline” value (45 mg bid, week 26, CAG Repeats <44 AND BL TMS 1st 3 Qs) was −1.04, the “Δ to placebo, change from baseline” value (67.5 mg bid, Week 26, ALL) was −0.34 and the “Δ to placebo, change from baseline” value (67.5 mg bid, Week 26, Stage 1 BL TFC 11-13) was −0.89. For the same compound, the “Δ to placebo, change from baseline” value (67.5 mg bid, Week 52, Stage 1 BL TFC 11-13) was −0.1, the “Δ to placebo, change from baseline” value (67.5 mg bid, Week 52, all pridopidine treated patients) was −0.35 and the “Δ to placebo, change from baseline” value (67.5 mg bid, week 26, BL TFC ≥9 and CAG Repeats <44 and BL TMS 1st 3 Qs) was −1.6. The “Δ to placebo, change from baseline” value (67.5 mg bid, week 26, BL TFC≥9 AND CAG Repeats <44) was −1.58, the “Δ to placebo, change from baseline” value (67.5 mg bid, week 26, CAG Repeats <44 AND BL TMS 1st 3 Qs) was −1.15 and the “Δ to placebo, change from baseline” value (90 mg bid, Week 26, ALL) was −0.33. The “Δ to placebo, change from baseline” value (90 mg bid, Week 26, Stage 1 BL TFC 11-13) was −1.56, the “Δ to placebo, change from baseline” value (90 mg bid, Week 52, Stage 1 BL TFC 11-13) was −1.46 and the “Δ to placebo, change from baseline” value (90 mg bid, Week 52, all pridopidine treated patients) was −0.27. For the same compound, the “Δ to placebo, change from baseline” value (90 mg bid, week 26, BL TFC ≥9 and CAG Repeats <44 and BL TMS 1st 3 Qs) was −1.64, the “Δ to placebo, change from baseline” value (90 mg bid, week 26, BL TFC≥9 AND CAG Repeats <44) was −1.72 and the “Δ to placebo, change from baseline” value (90 mg bid, week 26, CAG Repeats <44 AND BL TMS 1st 3 Qs) was −1. The “Δ to placebo, change from baseline” value (112.5 mg bid, Week 26, ALL) was −0.29, the “Δ to placebo, change from baseline” value (112.5 mg bid, Week 26, Stage 1 BL TFC 11-13) was −0.53 and the “Δ to placebo, change from baseline” value (112.5 mg bid, Week 52, Stage 1 BL TFC 11-13) was −0.46. The “Δ to placebo, change from baseline” value (112.5 mg bid, Week 52, all pridopidine treated patients) was −0.24, the “Δ to placebo, change from baseline” value (112.5 mg bid, week 26, BL TFC ≥9 and CAG Repeats <44 and BL TMS 1st 3 Qs) was −1.29 and the “Δ to placebo, change from baseline” value (112.5 mg bid, week 26, BL TFC≥9 AND CAG Repeats <44) was −1.4. For the same compound, the “Δ to placebo, change from baseline” value (112.5 mg bid, week 26, CAG Repeats <44 AND BL TMS 1st 3 Qs) was −0.62, the “dystonia score, change from baseline” value (baseline total dystonia score≥4, Week 52, all treatment groups, greatest decreases for 45, 67.5 and 90 mg bid) was “directional clinical improvement” and the “dystonia score, change from baseline” value (full analysis set, Week 26 or Week 52, all active treatment groups) was “no clinically meaningful changes from baseline”.
